Reference: ChEMBL document CHEMBL1926553, “Synthesis and antitumor activity of conjugates of 5-Fluorouracil and emodin” (Eur J Med Chem, 2012)

What was measured:
[1] = Cytotoxicity against human HO8910 cells after 2 days by alamar blue assay; format: functional, cell-based; conditions: HO-8910, 48 h
SGC-7901 [2] = test: Cytotoxicity against human SGC7901 cells after 2 days by alamar blue assay; format: functional, cell-based; conditions: SGC-7901, 48 h
HepG2 = test: Cytotoxicity against human HepG2 cells after 2 days by alamar blue assay; format: functional, cell-based; conditions: HepG2, 48 h
HEK293 = test: Cytotoxicity against human HEK293 cells after 2 days by alamar blue assay; format: cell-based; conditions: HEK293, 48 h
[3] = Ratio of compound IC50 to 5-Fluorouracil IC50 for human HEK293 cells after 2 days by alamar blue assay; format: ADME, cell-based; conditions: read-out: Ratio IC50
SGC-7901 [4] = test: Ratio of emodin IC50 to compound IC50 for human SGC7901 cells after 2 days by alamar blue assay; format: functional
[5] = Ratio of compound IC50 to emodin IC50 for human HEK293 cells after 2 days by alamar blue assay; format: ADME, cell-based; conditions: read-out: Ratio IC50

Compound	IC50 [1] [µM]	IC50 (SGC-7901 [2]) [µM]	IC50 (HepG2) [µM]	IC50 (HEK293; read-out: IC50) [µM]	selectivity ratio at 48 h [3]	IC50 (HEK293) [µM]	Ratio IC50 (SGC-7901 [4])	selectivity ratio at 48 h [5]
CCn1c(=O)c(F)cn(Cc2c(C)cc3c(c2OC)C(=O)c2c(OC)cc(OC)cc2C3=O)c1=O	> 100	> 100	> 100	–	–	–	–	–
CCCCn1c(=O)c(F)cn(Cc2c(C)cc3c(c2OC)C(=O)c2c(OC)cc(OC)cc2C3=O)c1=O	> 100	> 100	> 100	–	–	–	–	–
COc1cc(OC)c2c(c1)C(=O)c1cc(C)c(Cn3cc(F)c(=O)n(Cc4ccccc4F)c3=O)c(OC)c1C2=O	91.1	61	> 100	66.6	1.5	–	–	–
COc1cc(OC)c2c(c1)C(=O)c1cc(C)c(Cn3cc(F)c(=O)n(CCc4ccccc4)c3=O)c(OC)c1C2=O	11.6	> 100	68.6	4.6	–	–	–	–
COc1cc(OC)c2c(c1)C(=O)c1cc(C)c(Cn3cc(F)c(=O)n(CC=C(C)C)c3=O)c(OC)c1C2=O	> 100	> 100	> 100	–	–	–	–	–
COc1cc(OC)c2c(c1)C(=O)c1cc(C)c(Cn3cc(F)c(=O)n(C)c3=O)c(OC)c1C2=O	> 100	> 100	> 100	–	–	–	–	–
COc1cc(OC)c2c(c1)C(=O)c1cc(C)c(Cn3cc(F)c(=O)n(Cc4ccc5c(c4)OCO5)c3=O)c(OC)c1C2=O	> 100	> 100	91	30	–	–	–	–
COc1cc(OC)c2c(c1)C(=O)c1cc(C)c(Cn3cc(F)c(=O)[nH]c3=O)c(OC)c1C2=O	> 100	> 100	> 100	> 100	–	–	–	–
O=c1[nH]cc(F)c(=O)[nH]1 [FLUOROURACIL]	85.5	76	76.7	–	–	42.9	–	–
Cc1cc(O)c2c(c1)C(=O)c1cc(O)cc(O)c1C2=O [EMODIN]	16	61.3	13.1	1.3	–	–	–	–
COc1cc(OC)c2c(c1)C(=O)c1cc(C)c(Cn3cc(F)c(=O)n(Cc4ccccc4C#N)c3=O)c(OC)c1C2=O	22.6	21.4	39.9	29.6	–	–	3	23
COc1cc(OC)c2c(c1)C(=O)c1cc(C)c(Cn3cc(F)c(=O)n(Cc4ccccc4)c3=O)c(OC)c1C2=O	45.1	39.5	> 100	> 100	–	–	1.5	–
COc1cc(OC)c2c(c1)C(=O)c1cc(C)c(Cn3cc(F)c(=O)n(Cc4cccc(F)c4)c3=O)c(OC)c1C2=O	> 100	> 100	> 100	> 100	–	–	–	–
C/C=C/Cn1c(=O)c(F)cn(Cc2c(C)cc3c(c2OC)C(=O)c2c(OC)cc(OC)cc2C3=O)c1=O	> 100	> 100	> 100	–	–	–	–	–
